Assay results from PMC7482436, “Optopharmacology reveals a differential contribution of native GABAA receptors to dendritic and somatic inhibition using azogabazine” (Neuropharmacology, 2020).
Read-outs that look alike come from different tables or passages of the source.

Assays:
α1β2γ2L GABAARs [1] = biological target: T1, α1β2γ2L GABAARs (Mus musculus, UniProt P62812+P63137); assay: Whole-cell patch clamp of GABA currents, recombinant α1β2γ2L GABAARs in HEK293 cells; assay type: cell-based, murine; settings: for IC50: 10 μM GABA
T1 construct: expressed in transfected cells; host or cells: HEK293

[2] = 1H NMR of cis:trans isomer ratio and isomer stability under different light conditions; assay type: physicochemical
Procedure: For most of the study azogabazine was kept in darkness to ensure a stock of near-100% trans-isomer. Unless stated otherwise, experiments were performed in near-darkness (under red light) when making azogabazine stocks (1 mM stock solution in DMSO), and when pre-exposing stock solutions to UV or blue light using wavelength specific LEDs. Pre-exposure of azogabazine (stock) to UV or blue light was undertaken by positioning a UV (365 nm) or blue (470 nm) OptoLED (Cairn Research Ltd, Faversham, UK) 2–3 mm above a 500 μl droplet on parafilm and exposing for 2 min at maximum light intensity to ensure attainment of equilibrium between cis and trans isomers. The UV LED was operated at 1.2 A to achieve a light intensity output at the surface of the droplet of 5.3 mW. By comparison, the Blue LED was run at 0.9 A for a light intensity output of 8.1 mW at the surface of the droplet.
To physically assess the photo-conversion efficiency between the cis and trans isomers we determined the proton (^1H)-NMR spectra for azogabazine ([…]) in deuterated DMSO under different light conditions. Initially, azogabazine was retained in complete darkness for >14 days and then stored under similar dark conditions. This drove the cis:trans equilibrium almost completely towards the more thermodynamically stable trans isomer (Fig. 1C). […] By integrating the ^1H NMR spectra, long-term darkness produced ~100% of trans-azogabazine, whereas the UV (365 nm) exposure produced an equilibrium of ~85% cis to 15% trans isomers. […] Thus, switching the wavelength of light produced substantive photoisomerisation of azogabazine.
Fig. 2 Azogabazine isomerization and isomer stability. (A), Stability plot for the cis-isomer for non-dark adapted azogabazine samples exposed to different wavelengths of light: λ 365, 405, 470, 530, 565 nm, and near-infrared (NR), prior to ^1H NMR. […] A long (60 s) period of UV-exposure was needed to reach a maximal equilibrium conversion ratio of ~85 : 15% for cis: trans isomers. […] (B), The stability of a UV exposed and established cis: trans ratio is dependent on subsequent storage conditions. If the UV-exposed sample is subsequently kept in ambient light (blue line), the cis:trans ratio changes over ~ 2–4 h towards ~25% cis: 75% trans remaining stable over 10 days (dashed blue line). By contrast, the UV-exposed sample remained stable (~85% cis: 15% trans) over 24 h if subsequently kept in darkness (red line). However, over 10 days, conversion to a predominant trans-form was evident (dashed red line). Finally, when a sample which had been kept in ambient light (~25% cis: 75% trans) was then placed and stored in darkness, it remained stable over 24 h (green line) but slowly converted again to the trans form over 10 days (dashed green line).
To investigate the dynamic relationship between the two azogabazine isomers, we investigated the effect of azogabazine in solution under conditions that result in three different ratios of trans: cis isomers. These included: a dark-adapted solution (trans 100: cis 0%); one pre-exposed for 60 s to blue light (trans 75: cis 25%); and a third exposed for the same duration to UV light (trans 15: cis 85%). […] All subsequent experiments were performed in near-darkness and within 3 h after the trans: cis ratios were established to ensure the stability of the isomers during experimentation. […] The later provides assurance as to the relative time stability of the cis and trans isoforms of azogabazine.

cerebellar granule cells [3] = assay: Voltage clamp of GABA-mediated IPSCs in cultured cerebellar granule cells with membrane-delimited UV spot; assay type: cell-based, Sprague Dawley rats; settings: for mean IPSC amplitude recovered with UV light / IPSC frequency normalised to 100 μm^2 membrane area: 1 μM azogabazine; for mean IPSC amplitude recovered with UV light: −60 mV, n = 12
cerebellar granule cells [4] = assay: Current clamp of action potential firing in cultured cerebellar granule cells with membrane-delimited UV spot; assay type: cell-based, Sprague Dawley rats; settings: 1 μM azogabazine; for inhibition at 1 µM: Rattus norvegicus
Procedure: Dissociated cerebellar cultures were prepared from cerebellar tissue taken from postnatal day 4 (P4) Sprague Dawley rats. Tissue blocks were incubated in trypsin for 10 min (0.1% w/v), washed in Hanks Balanced Salt Solution (HBSS), and then triturated in DNase (0.05% w/v in 12 mM MgSO4). Cells were plated on poly-L-ornithine coated 22 mm glass coverslips in Basal Medium Eagle (BME) supplemented with 0.5% (w/v) glucose, 5 mg/l insulin, 5 mg/l transferrin, 5 mg/l selenium, 20 u/ml penicillin-G and 20 μg/ml streptomycin, 0.2 mM glutamine, 1.2 mM NaCl, and 5% (v/v) fetal calf serum. The neuronal culture was then allowed to develop for 7–10 days at 37 °C in humidified air with 5% CO2 before used for experiments.
To initiate photo-isomerization of azogabazine, optical light paths were used to convey UV laser (Obis [375 nm], Coherent Inc., Santa Clara, USA) or blue LED light (OptoLED [470 nm], Cairn Research Ltd, Faversham, U.K.) through a variable diaphragm (for setting the illuminated spot-diameter), and finally through a water-immersion objective (Nikon, NIR Apo 40×/0.8w) to the cells. The diaphragm was kept fully open for whole cell light exposure experiments and reduced to generate small spots (~8–12 μm) when exposing soma or proximal dendritic areas. The illuminated spot size and position could be adjusted during experiments. Whereas the blue LED could be operated at high power (8.1 mW) during experiments, the UV laser output was empirically adjusted to 2 mW (4% of maximum operating power) to avoid cell damage, but still sufficient to adequately azogabazine isomerization. To adjust the size and position of the illuminated spot, a 440 nm white LED pilot light and a 515 nm long-pass filter were used before switching to UV or blue light.
IPSCs from cerebellar granule cells were detected post-hoc using WinEDR 3.5.6, and analysed for frequency, amplitude, rise time and weighted decay tau using WinWCP 4.9.6. Action potentials from cerebellar granule cells were recorded under current-clamp and were similarly detected with WinEDR 3.5.6. Data were subjected to statistical analyses (ANOVA, paired and unpaired Student t-tests).
To assess neuronal excitability and GABA inhibition, current clamp recordings were performed from cultured granule cells to monitor action potential generation in the presence of 1 μM azogabazine before and after applying UV light.

α1β2γ2L GABAARs [5] = biological target: T1, α1β2γ2L GABAARs; design: method as in Huckvale et al., 2016; settings: normal ambient daylight; ref Huckvale et al., 2016; cited from earlier work
[6] = UV 365 nm exposure for 60 s, equilibrium
[7] = blue light 470 nm for 60 s, photostationary state

T1 sequence (P62812 28-455): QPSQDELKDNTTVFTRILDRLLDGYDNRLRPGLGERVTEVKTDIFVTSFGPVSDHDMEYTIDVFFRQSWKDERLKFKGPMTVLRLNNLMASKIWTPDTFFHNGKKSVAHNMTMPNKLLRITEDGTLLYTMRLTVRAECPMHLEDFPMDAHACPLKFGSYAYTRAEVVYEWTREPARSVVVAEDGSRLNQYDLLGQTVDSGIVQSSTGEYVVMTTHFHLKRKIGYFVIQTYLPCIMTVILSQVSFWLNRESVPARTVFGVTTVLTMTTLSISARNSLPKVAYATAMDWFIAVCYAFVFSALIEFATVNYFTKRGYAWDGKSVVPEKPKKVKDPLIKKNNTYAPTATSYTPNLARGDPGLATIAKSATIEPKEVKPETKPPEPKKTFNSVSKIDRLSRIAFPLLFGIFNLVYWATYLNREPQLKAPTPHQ
T1 sequence (P63137 25-512 limits assumed): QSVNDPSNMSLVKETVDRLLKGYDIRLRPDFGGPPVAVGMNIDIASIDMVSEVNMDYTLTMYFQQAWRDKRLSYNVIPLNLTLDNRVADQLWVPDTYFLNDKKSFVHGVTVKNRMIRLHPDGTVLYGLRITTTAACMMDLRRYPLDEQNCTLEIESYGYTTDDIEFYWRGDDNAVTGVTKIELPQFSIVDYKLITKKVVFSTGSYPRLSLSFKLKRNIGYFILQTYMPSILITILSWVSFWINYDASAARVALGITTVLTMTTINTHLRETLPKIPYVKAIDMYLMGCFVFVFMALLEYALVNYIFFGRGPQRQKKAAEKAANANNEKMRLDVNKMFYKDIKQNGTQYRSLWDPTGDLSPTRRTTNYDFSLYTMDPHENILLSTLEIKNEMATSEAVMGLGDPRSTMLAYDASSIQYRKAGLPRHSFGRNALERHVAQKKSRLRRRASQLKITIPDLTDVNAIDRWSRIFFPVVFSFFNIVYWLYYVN
T1 sequence (P22723 39-474 partner): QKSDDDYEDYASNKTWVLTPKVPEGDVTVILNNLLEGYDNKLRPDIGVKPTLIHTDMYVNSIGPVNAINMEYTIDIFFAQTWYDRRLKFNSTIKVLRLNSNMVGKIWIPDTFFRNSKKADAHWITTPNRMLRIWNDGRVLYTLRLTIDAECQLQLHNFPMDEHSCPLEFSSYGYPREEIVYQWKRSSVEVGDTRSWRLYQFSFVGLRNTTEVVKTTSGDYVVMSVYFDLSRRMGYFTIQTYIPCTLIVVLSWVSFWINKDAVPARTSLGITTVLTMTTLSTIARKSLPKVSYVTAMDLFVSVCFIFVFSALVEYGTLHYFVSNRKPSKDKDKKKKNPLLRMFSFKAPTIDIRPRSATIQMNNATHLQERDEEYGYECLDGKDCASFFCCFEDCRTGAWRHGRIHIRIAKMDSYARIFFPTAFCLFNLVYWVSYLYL

In the case of `N=c1ccc(-c2ccc(N=Nc3ccccc3)cc2)nn1CCCC(=O)O` [azogabazine], the “block of GABA current” value (α1β2γ2L GABAARs [1]; 1 μM azogabazine co-applied with 10 μM GABA, ambient daylight) is reported as “near complete block”, the remaining activity at 1 µM (α1β2γ2L GABAARs [1]; HEK293, read-out: GABA current recovery during UV light exposure, % of control GABA current, 1 μM azogabazine (not dark-adapted) + 10 μM GABA, UV light, n = 8) is reported as 64 ± 9% and the remaining activity at 1 µM (α1β2γ2L GABAARs [1]; HEK293, 1 μM azogabazine (not dark-adapted) + 10 μM GABA, blue light, n = 8, read-out: GABA current during blue light exposure, % of control) is reported as 6 ± 3%. The IC50 (α1β2γ2L GABAARs [1]; UV pre-exposed azogabazine (365 PE, ~15% trans)) was 104 nM, the IC50 (α1β2γ2L GABAARs [1]; dark-adapted azogabazine (~100% trans), wild-type) was 21.1 nM and the “inhibitory potency of dark-adapted versus UV pre-exposed azogabazine” value (α1β2γ2L GABAARs [1]; dark-adapted higher than UV pre-exposed) was 5 fold. For the same compound, the cis isomer fraction [2, 6] was ~ 85%, the trans isomer fraction [2, 6] was 15% and the “time for UV-established cis:trans ratio to change towards ~25% cis: 75% trans” value ([2]; UV-exposed sample kept in ambient light) was 2 to 4 h. For the same compound, the cis isomer fraction [2, 7] was 25%, the trans isomer fraction [2, 7] was “approximately 75%” and the trans isomer fraction ([2]; long-term darkness, deuterated DMSO) was ~ 100%. The “block of GABA-mediated IPSCs” value (cerebellar granule cells [3]; 1 μM azogabazine (saturating), dark-adapted) was “rapidly blocked all the GABA-mediated IPSCs”, the “mean IPSC amplitude recovered with UV light” value (cerebellar granule cells [3]; UV spot directed to soma) was −74 ± 16 pA and the “IPSC frequency normalised to 100 μm^2 membrane area” value (cerebellar granule cells [3]; UV spot on proximal dendrites) was 4.2 ± 0.9 Hz. The “mean IPSC amplitude recovered with UV light” value (cerebellar granule cells [3]; UV spot on proximal dendritic zones) was −41 ± 7 pA, the “IPSC frequency normalised to 100 μm^2 membrane area” value (cerebellar granule cells [3]; UV spot on soma) was 1.8 ± 0.3 Hz and the spike frequency (cerebellar granule cells [4]; before UV) was 8.4 ± 3.3 Hz. For the same compound, the burst frequency (cerebellar granule cells [4]; burst firing cells) was 1.1 ± 0.3 Hz, the “individual spikes per burst” value (cerebellar granule cells [4]; burst firing cells) was 11 ± 3 and the inhibition at 1 µM (cerebellar granule cells [4]; UV on proximal dendritic zones, normalised to exposed area, read-out: inhibition of individual spike generation after UV isomerization) was 50 ± 17%. The inhibition at 1 µM (cerebellar granule cells [4]; UV on proximal dendritic zones, read-out: inhibition of spike burst generation after UV isomerization) was 60 ± 9%, the inhibition at 1 µM (cerebellar granule cells [4]; UV on somatic membrane, normalised to exposed area, read-out: inhibition of individual spike generation after UV isomerization) was 18 ± 3% and the inhibition at 1 µM (cerebellar granule cells [4]; UV on somatic membrane, read-out: inhibition of spike burst generation after UV isomerization) was 25 ± 3%. For the same compound, the IC50 (α1β2γ2L GABAARs [5]) was 22.6 nM and the pIC50 (α1β2γ2L GABAARs [5]) was 7.65 ± 0.14.
